From patent US10851102B2, “Imidazole and triazole containing bicyclic compounds as JAK inhibitors” (THERAVANCE BIOPHARMA R&D IP, LLC, priority 2019, dated 2020)

Key:
JAK3 = JAK3 (Homo sapiens (Human), UniProt P52333); assay: Biochemical JAK and Tyk2 kinase assays (LanthaScreen): JAK3; conditions: for Ki / JAK 3 (pKi): 1 h pre-incubation, ATP at Km, pIC50 converted to pKi by Cheng-Prusoff; for Ki: read-out: JAK 3 (pKi) (converted); for JAK3 (pKi)-JAK1 (pKi): difference of pKi values, selectivity JAK3 over JAK1
Sequence of JAK3 (P52333 whole entry): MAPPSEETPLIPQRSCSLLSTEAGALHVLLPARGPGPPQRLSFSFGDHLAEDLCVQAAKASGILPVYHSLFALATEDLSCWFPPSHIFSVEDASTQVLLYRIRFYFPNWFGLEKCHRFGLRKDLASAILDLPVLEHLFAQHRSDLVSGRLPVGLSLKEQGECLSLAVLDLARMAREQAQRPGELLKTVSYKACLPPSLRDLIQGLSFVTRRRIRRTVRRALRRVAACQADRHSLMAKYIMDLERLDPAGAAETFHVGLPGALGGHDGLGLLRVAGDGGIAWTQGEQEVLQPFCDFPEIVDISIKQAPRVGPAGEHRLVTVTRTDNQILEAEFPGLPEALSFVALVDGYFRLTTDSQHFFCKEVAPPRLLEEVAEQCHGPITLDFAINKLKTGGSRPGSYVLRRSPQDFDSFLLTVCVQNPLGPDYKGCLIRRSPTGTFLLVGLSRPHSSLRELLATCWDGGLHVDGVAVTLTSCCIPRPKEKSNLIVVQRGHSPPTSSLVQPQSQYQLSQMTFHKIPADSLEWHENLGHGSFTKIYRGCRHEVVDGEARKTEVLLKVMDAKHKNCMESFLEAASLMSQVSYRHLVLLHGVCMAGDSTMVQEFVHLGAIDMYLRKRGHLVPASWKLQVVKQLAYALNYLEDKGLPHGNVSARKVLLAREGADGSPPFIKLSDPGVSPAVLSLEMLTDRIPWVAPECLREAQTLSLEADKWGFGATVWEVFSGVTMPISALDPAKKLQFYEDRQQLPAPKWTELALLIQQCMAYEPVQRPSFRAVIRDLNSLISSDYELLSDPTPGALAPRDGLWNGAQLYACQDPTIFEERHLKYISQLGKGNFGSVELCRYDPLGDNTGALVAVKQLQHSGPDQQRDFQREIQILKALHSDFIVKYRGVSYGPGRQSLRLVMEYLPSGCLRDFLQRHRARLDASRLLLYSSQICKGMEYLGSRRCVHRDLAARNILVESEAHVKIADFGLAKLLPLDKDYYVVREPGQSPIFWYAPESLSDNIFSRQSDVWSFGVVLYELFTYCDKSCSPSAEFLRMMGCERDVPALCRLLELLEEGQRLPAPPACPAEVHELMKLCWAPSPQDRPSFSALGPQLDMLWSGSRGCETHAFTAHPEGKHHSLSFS
Description: (§1) Assay 1: Biochemical JAK and Tyk2 Kinase Assays
(§2) A panel of four LanthaScreen JAK biochemical assays (JAK1, 2, 3 and Tyk2) were carried in a common kinase reaction buffer (50 mM HEPES, pH 7.5, 0.01% Brij-35, 10 mM MgCl2, and 1 mM EGTA). Recombinant GST-tagged JAK enzymes and a GFP-tagged STAT1 peptide substrate were obtained from Life Technologies.
(§3) Serially or discretely diluted compounds were pre-incubated with each of the four JAK enzymes and the substrate in white 384-well microplates (Corning) at ambient temperature for 1 h. ATP was subsequently added to initiate the kinase reactions in 10 μL total volume, with 1% DMSO. […] Kinase reactions were allowed to proceed for 1 hour at ambient temperature before a 10 μL preparation of EDTA (10 mM final concentration) and Tb-anti-pSTAT1 (pTyr701) antibody (Life Technologies, 2 nM final concentration) in TR-FRET dilution buffer (Life Technologies) was added. The plates were allowed to incubate at ambient temperature for 1 h before being read on the EnVision reader (Perkin Elmer). Emission ratio signals (520 nm/495 nm) were recorded and utilized to calculate the percent inhibition values based on DMSO and background controls.
(§4) For dose-response analysis, percent inhibition data were plotted vs. compound concentrations, and IC50 values were determined from a 4-parameter robust fit model with the Prism software (GraphPad Software). Results were expressed as pIC50 (negative logarithm of IC50) and subsequently converted to pKi (negative logarithm of dissociation constant, Ki) using the Cheng-Prusoff equation.

Tyk2 = Tyk2 (Homo sapiens (Human), UniProt P29597); assay: Biochemical JAK and Tyk2 kinase assays (LanthaScreen): Tyk2; conditions: 1 h pre-incubation, ATP at Km; pIC50 converted to pKi by Cheng-Prusoff
Sequence of Tyk2 (P29597 whole entry): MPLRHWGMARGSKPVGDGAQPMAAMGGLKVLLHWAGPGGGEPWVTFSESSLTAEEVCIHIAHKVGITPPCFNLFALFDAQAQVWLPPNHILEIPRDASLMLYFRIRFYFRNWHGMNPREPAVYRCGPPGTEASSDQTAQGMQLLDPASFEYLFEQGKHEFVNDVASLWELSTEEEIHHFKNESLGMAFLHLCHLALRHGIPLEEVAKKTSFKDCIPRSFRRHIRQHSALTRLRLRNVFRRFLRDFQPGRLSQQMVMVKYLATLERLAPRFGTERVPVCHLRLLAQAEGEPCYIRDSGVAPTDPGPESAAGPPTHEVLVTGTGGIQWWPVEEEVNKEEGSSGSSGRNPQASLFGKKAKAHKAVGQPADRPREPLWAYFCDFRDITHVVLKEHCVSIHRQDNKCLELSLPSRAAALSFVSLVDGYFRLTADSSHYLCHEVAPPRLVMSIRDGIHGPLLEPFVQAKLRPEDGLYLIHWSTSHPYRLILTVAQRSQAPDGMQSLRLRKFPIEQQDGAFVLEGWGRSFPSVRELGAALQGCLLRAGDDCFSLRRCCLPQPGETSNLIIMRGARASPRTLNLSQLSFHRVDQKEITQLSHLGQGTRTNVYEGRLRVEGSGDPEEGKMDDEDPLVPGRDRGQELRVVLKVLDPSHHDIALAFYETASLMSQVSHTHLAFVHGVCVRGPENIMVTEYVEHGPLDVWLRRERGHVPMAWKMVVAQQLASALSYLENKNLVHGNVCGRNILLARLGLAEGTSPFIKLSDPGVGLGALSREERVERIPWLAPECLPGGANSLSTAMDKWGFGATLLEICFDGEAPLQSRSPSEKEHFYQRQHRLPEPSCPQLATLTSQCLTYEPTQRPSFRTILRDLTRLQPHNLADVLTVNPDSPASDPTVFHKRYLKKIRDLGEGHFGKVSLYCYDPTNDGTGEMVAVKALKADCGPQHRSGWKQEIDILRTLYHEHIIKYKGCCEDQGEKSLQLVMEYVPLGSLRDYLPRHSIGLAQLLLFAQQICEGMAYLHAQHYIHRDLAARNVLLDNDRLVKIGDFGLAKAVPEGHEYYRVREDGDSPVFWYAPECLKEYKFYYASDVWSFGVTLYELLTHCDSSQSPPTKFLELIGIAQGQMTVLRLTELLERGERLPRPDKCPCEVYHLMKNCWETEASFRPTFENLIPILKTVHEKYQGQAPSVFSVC
Description: as §1, §2, §3, §4

JAK1 = JAK1 (Homo sapiens (Human), UniProt P23458); assay: Biochemical JAK and Tyk2 kinase assays (LanthaScreen): JAK1; conditions: 1 h pre-incubation, ATP at Km; pIC50 converted to pKi by Cheng-Prusoff
Sequence of JAK1 (P23458 whole entry): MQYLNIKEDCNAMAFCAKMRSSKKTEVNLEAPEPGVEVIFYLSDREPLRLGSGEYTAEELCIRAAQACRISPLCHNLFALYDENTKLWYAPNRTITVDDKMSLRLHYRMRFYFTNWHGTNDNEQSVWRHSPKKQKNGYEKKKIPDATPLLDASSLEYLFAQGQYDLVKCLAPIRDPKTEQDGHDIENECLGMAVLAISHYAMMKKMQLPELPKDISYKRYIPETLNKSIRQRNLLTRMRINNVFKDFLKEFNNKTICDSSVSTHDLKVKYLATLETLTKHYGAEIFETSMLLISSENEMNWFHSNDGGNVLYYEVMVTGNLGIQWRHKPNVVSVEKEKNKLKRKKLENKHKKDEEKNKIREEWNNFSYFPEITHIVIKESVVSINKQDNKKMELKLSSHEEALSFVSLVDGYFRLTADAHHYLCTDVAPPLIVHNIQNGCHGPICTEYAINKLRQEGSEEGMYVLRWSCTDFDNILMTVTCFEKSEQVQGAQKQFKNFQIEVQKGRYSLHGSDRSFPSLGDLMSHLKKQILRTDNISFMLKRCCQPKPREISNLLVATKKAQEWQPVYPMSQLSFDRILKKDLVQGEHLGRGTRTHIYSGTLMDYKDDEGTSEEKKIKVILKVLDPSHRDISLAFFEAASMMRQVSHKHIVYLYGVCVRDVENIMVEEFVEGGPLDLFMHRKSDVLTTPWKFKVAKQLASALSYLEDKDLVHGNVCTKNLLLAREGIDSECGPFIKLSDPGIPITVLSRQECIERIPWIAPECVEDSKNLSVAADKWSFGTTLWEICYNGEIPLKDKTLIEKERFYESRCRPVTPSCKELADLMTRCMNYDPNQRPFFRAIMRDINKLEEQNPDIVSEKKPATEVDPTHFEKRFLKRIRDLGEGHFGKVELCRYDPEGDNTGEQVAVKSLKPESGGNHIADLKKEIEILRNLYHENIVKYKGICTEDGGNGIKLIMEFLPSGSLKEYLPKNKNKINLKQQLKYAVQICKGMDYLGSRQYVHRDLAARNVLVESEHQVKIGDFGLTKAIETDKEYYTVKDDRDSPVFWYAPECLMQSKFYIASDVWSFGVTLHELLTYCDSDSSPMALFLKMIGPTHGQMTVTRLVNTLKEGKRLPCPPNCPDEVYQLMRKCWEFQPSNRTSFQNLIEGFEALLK
Description: as §1, §2, §3, §4

[1] = system: IL-2 stimulated pSTAT5 in Tall-1 T cells (JAK3); assay: Cellular JAK3 potency assay: inhibition of IL-2 stimulated pSTAT5 in Tall-1 T cells; type: cell-based; conditions: IL-2 300 ng/ml, pSTAT5 AlphaLisa, Tall-1 human T cell line; read-out: Tall-1 (pIC50) (converted)
Description: Assay 2: Cellular JAK3 Potency Assay: Inhibition of IL-2 Stimulated pSTAT5 in Tall-1 T Cells
The potency of test compounds for inhibition of interleukin-2 (IL-2) stimulated STATS phosphorylation was measured in the Tall-1 human T cell line (DSMZ) using AlphaLisa. Because IL-2 signals through JAK3, this assay provides a measure of JAK3 cellular potency.
Phosphorylated STATS was measured via the AlphaLISA SureFire Ultra pSTAT5 (Tyr694/699) kit (PerkinElmer).
Human T cells from the Tall-1 cell line were cultured in a 37° C., 5% CO2 humidified incubator in RPMI (Life Technologies) supplemented with 15% Heat Inactivated Fetal Bovine Serum (FBS, Life Technologies), 2 mM Glutamax (Life Technologies), 25 mM HEPES (Life Technologies) and 1× Pen/Strep (Life Technologies). Compounds were serially diluted in DMSO and dispensed acoustically to empty wells. Assay media (phenol red-free DMEM (Life Technologies) supplemented with 10% FBS (ATCC)) was dispensed (4 μL/well) and plates shaken at 900 rpm for 10 mins. Cells were seeded at 45,000 cells/well in assay media (4 μL/well), and incubated at 37° C., 5% CO2 for 1 hour, followed by the addition of IL-2 (R&D Systems; final concentration 300 ng/ml) in pre-warmed assay media ([…]) for 30 minutes. After cytokine stimulation, cells were lysed with 6 ul of 3× AlphaLisa Lysis Buffer (PerkinElmer) containing 1× PhosStop and Complete tablets (Roche). The lysate was shaken at 900 rpm for 10 minutes at room temperature (RT). Phosphorylated STATS was measured via the pSTAT5 AlphaLisa kit (PerkinElmer). Freshly prepared acceptor bead mixture was dispensed onto lysate (5 μL) under green filtered <100 lux light. Plates were shaken at 900 rpm for 2 mins, briefly spun down, and incubated for 2 hrs at RT in the dark. Donor beads were dispensed (5 μL) under green filtered <100 lux light. Plates were shaken at 900 rpm for 2 minutes, briefly spun down, and incubated overnight at RT in the dark. Luminescence was measured with excitation at 689 nm and emission at 570 nm using an EnVision plate reader (PerkinElmer) under green filtered <100 lux light.
To determine the inhibitory potency of test compounds in response to IL-2, the average emission intensity of beads bound to pSTAT5 was measured in a human T cell line. IC50 values were determined from analysis of the inhibition curves of signal intensity versus compound concentration. Data are expressed as pIC50 (negative decadic logarithm IC50) values (mean±standard deviation).

JAK2 = JAK2 (Homo sapiens (Human), UniProt O60674); assay: Biochemical JAK and Tyk2 kinase assays (LanthaScreen): JAK2; conditions: 1 h pre-incubation, ATP at Km; pIC50 converted to pKi by Cheng-Prusoff
Sequence of JAK2 (O60674 whole entry): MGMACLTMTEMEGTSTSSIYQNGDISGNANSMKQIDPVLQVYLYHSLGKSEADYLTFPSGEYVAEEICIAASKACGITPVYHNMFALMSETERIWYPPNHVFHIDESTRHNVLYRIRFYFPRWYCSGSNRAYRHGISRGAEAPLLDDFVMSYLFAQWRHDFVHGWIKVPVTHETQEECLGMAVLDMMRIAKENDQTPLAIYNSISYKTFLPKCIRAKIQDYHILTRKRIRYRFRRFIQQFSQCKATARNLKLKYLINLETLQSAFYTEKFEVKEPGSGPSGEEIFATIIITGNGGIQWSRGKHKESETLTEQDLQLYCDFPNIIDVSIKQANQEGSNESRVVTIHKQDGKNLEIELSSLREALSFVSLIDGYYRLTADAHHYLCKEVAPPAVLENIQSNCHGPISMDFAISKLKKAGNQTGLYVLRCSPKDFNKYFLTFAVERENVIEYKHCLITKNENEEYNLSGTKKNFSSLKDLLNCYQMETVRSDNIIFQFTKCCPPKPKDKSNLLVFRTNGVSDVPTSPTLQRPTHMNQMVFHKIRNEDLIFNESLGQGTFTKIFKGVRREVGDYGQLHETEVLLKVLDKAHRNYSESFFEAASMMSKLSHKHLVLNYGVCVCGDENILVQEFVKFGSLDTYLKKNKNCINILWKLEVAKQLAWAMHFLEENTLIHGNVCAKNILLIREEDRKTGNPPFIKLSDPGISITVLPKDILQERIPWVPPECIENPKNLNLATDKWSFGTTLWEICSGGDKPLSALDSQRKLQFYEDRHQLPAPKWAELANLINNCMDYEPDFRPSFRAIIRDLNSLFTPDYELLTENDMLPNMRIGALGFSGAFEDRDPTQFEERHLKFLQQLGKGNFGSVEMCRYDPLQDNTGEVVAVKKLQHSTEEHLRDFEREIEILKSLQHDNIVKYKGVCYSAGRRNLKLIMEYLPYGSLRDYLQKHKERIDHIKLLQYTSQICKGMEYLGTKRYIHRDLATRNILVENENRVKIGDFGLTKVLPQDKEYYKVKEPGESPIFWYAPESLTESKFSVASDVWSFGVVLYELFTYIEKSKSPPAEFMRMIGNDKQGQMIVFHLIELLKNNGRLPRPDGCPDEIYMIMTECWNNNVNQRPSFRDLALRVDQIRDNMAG
Description: as §1, §2, §3, §4

SMILES | Ki (JAK3) [nM] | JAK3 (pKi)-JAK1 (pKi) (JAK3) | Tyk 2 (pKi) (Tyk2) | JAK 1 (pKi) (JAK1) | IC50 [1] [nM] | JAK 2 (pKi) (JAK2) | JAK 3 (pKi) (JAK3)
C=CC(=O)N1CC2(CC(Oc3cc(-c4ccc(O)cc4)cn4cncc34)C2)C1 [Example 37] | 0.1 to 1 | A (A represents a value of 3 or above) | E (E represents a pKi value of 7 or below (Ki of 100 nM or above)) | E (E represents a pKi value of 7 or below (Ki of 100 nM or above)) | 200 to 1000 | E (E represents a pKi value of 7 or below (Ki of 100 nM or above)) | 
C=CC(=O)N1CCC[C@H](Oc2cc(-c3ccc(O)cc3)cn3cncc23)C1 [Example 27] | 0.1 to 1 | A (A represents a value of 3 or above) | E (E represents a pKi value of 7 or below (Ki of 100 nM or above)) | E (E represents a pKi value of 7 or below (Ki of 100 nM or above)) | 200 to 1000 | E (E represents a pKi value of 7 or below (Ki of 100 nM or above)) | 
C=CC(=O)N1CC[C@H](COc2cc(-c3ccc(O)cc3)cn3cncc23)C1 [Example 26] | 0.1 to 1 | A (A represents a value of 3 or above) | E (E represents a pKi value of 7 or below (Ki of 100 nM or above)) | E (E represents a pKi value of 7 or below (Ki of 100 nM or above)) | 200 to 1000 | E (E represents a pKi value of 7 or below (Ki of 100 nM or above)) | 
C=CC(=O)N1CCC(Nc2cc(-c3ccc(O)cc3)cn3cncc23)CC1 [Example 4, 1-(4-((6-(4-hydroxyphenyl)imidazo[1,5-a]pyridin-8-yl)amino)piperidin-1-yl)prop-2-en-1-one] | 1 to 10 | B (B represents a value of 2.3 to 3) | E (E represents a pKi value of 7 or below (Ki of 100 nM or above)) | E (E represents a pKi value of 7 or below (Ki of 100 nM or above)) |  | E (E represents a pKi value of 7 or below (Ki of 100 nM or above)) | 
C=CC(=O)N1CC(COc2cc(-c3ccc(O)cc3C)cn3cncc23)C1 [Example 44] | 0.1 to 1 | A (A represents a value of 3 or above) | E (E represents a pKi value of 7 or below (Ki of 100 nM or above)) | E (E represents a pKi value of 7 or below (Ki of 100 nM or above)) | 31.6 to 200 | E (E represents a pKi value of 7 or below (Ki of 100 nM or above)) | 
C=CC(=O)N1CC2(CCC2Oc2cc(-c3ccc(O)cc3)cn3cncc23)C1 (centres unmarked) [Example 3, 1-(5-((6-(4-hydroxyphenyl)imidazo[1,5-a]pyridin-8-yl)oxy)-2-azaspiro[3.3]heptan-2-yl)prop-2-en-1-one] | 0.1 to 1 | A (A represents a value of 3 or above) | E (E represents a pKi value of 7 or below (Ki of 100 nM or above)) | E (E represents a pKi value of 7 or below (Ki of 100 nM or above)) | 31.6 to 200 | E (E represents a pKi value of 7 or below (Ki of 100 nM or above)) | 
CN(C)C/C=C/C(=O)N1CC(COc2cc(-c3ccc(O)c(Cl)c3)cn3cncc23)C1 [Example 23] | 0.1 to 1 | A (A represents a value of 3 or above) | E (E represents a pKi value of 7 or below (Ki of 100 nM or above)) | E (E represents a pKi value of 7 or below (Ki of 100 nM or above)) | 200 to 1000 | E (E represents a pKi value of 7 or below (Ki of 100 nM or above)) | 
C=CC(=O)N1CC[C@@H](Oc2cc(-c3ccc(O)cc3)cn3cncc23)[C@@H](C)C1 [Example 41] |  | A (A represents a value of 3 or above) | E (E represents a pKi value of 7 or below (Ki of 100 nM or above)) | E (E represents a pKi value of 7 or below (Ki of 100 nM or above)) | 31.6 to 200 | E (E represents a pKi value of 7 or below (Ki of 100 nM or above)) | A (A represents a pKi value≥10 (Ki≤0.1 nM))
C=CC(=O)N1CC(COc2cc(-c3ccc(O)cc3C(F)(F)F)cn3cncc23)C1 [Example 42] | 0.1 to 1 | A (A represents a value of 3 or above) |  | E (E represents a pKi value of 7 or below (Ki of 100 nM or above)) | 200 to 1000 |  | 
C=CC(=O)N1CC[C@H](Oc2cc(-c3ccc(O)cc3)cn3cncc23)C1 [Example 1, (S)-1-(3-((6-(4-hydroxyphenyl)imidazo[1,5-a]pyridin-8-yl)oxy)pyrrolidin-1-yl)prop-2-en-1-one] | 0.1 to 1 | A (A represents a value of 3 or above) | E (E represents a pKi value of 7 or below (Ki of 100 nM or above)) | E (E represents a pKi value of 7 or below (Ki of 100 nM or above)) | 200 to 1000 | E (E represents a pKi value of 7 or below (Ki of 100 nM or above)) | 
C=CC(=O)N1CC(COc2cc(-c3cc(F)c(O)c(F)c3)cn3cncc23)C1 [Example 32] | 0.1 to 1 | A (A represents a value of 3 or above) |  | E (E represents a pKi value of 7 or below (Ki of 100 nM or above)) | 200 to 1000 |  | 
C=CC(=O)N1CC[C@@H](Oc2cc(-c3ccc(O)cc3)cn3cncc23)C[C@@H]1C [Example 39] |  | A (A represents a value of 3 or above) | E (E represents a pKi value of 7 or below (Ki of 100 nM or above)) | E (E represents a pKi value of 7 or below (Ki of 100 nM or above)) | 31.6 to 200 | E (E represents a pKi value of 7 or below (Ki of 100 nM or above)) | A (A represents a pKi value≥10 (Ki≤0.1 nM))
CN(C)C/C=C/C(=O)N1CC(COc2cc(-c3ccc(O)c(F)c3)cn3cncc23)C1 [Example 22] | 0.1 to 1 | A (A represents a value of 3 or above) |  | E (E represents a pKi value of 7 or below (Ki of 100 nM or above)) | 200 to 1000 |  | 
